“Also recorded” adds a separate entry of the source.
Tests used:
[1] = system: 3E7 anti Leu-enkephalin monoclonal antibody; assay type: binding
[2] = system: W6/32 monoclonal antibody

Question: With “Gly-Leu-Phe-Tyr-Gly-DNA (GLFYG; DNA conjugate; printed: Gly-Leu-Phe-Tyr-Gly-) [R2 product, Structural DNA display product with scrambled Leu-enkephalin, negative control for the partitioning assay]” as the substance, how does the “binding to 3E7 antibody (gel-shifted band)” value [1] read?
Answer: The value was “does not bind to 3E7”.

Question: Which “binding to 3E7 antibody (gel-shifted band)” value [1] does the source give for Tyr-Gly-Gly-Phe-Leu-DNA [R1 product] here?
Answer: Its value is “binding to 3E7 antibody; also recorded: specific binding”.

Question: What about the “gel-shifted band with IgG2A isotype matched negative control antibody” value [2] of the same substance?
Answer: Its value is “absent”.

Source: patent publication US9006150B2, “Structural nucleic acid guided chemical synthesis” (Vipergen ApS, priority 2004, dated 2015)
